Key:
[1] = Blood level in the rat after one-time intravenous injection; format: in vivo; conditions: one-time i.v. injection, Ultravist 300 mg I/kg, example 4c 200 mg I/kg, especially first 10 minutes, average of three animals, FIG. 1
Protocol: The blood level in the rat was determined after one-time intravenous injection of 300 mg of I/kg of body weight of Ultravist®[]. and 200 mg of I/kg of body weight of the compound of example 4c [.diamond.]. The data represent the average value from three animals each.

[2] = Elimination from and retention in the body of the rat; format: in vivo

Row | route of elimination [2] | elimination from the body ([2]; dose 100 mg of I/kg) | retention in the organs liver, kidney and spleen as well as in the remainder of the body ([2]; dose 100 mg of I/kg, 14 days after administration) | Molecule | blood concentration over time, standardized to the administered dose [1]
1 |  |  |  | COCC(=O)Nc1c(I)c(C(=O)NCC(O)CO)c(I)c(C(=O)N(C)CC(O)CO)c1I (centres unmarked) [Ultravist, reference compound] | very much more quickly
2 | mainly through the kidney | complete elimination | 0.36 % of the dose | Octatetracontakis-{3-sodium carboxylatoformylamino-5-(2,3-dihydroxypropylcarbamoyl)-2,4,6-triiodobenzoyl} derivative of the lysine-alanine copolymer (K5)8 K4 K2 K-A--OH [Example 4] | remains very much longer in the blood space
